The subject of data set [1] is primary cultured hepatocytes. Kind of data set: Cell-protecting effect against cold shock in primary cultured hepatocytes (WST-1). The data set is classed as cell-based. Conditions: Rattus norvegicus, Hepatocyte, 37° C. for 1 hour, 4° C. for 22 hours, then 37° C., cell viability by WST-1. On the procedure: In order to reproduce a condition for preservation prior to organ transplantation, primary cultured hepatocytes were prepared according to Experimental Example 1 and treated with the compounds of the working examples at 9 different concentrations that had been prepared by 3-fold serial dilution method using a starting concentration of 25 μM. The mixture was cultured at 37° C. for 1 hour, stored at 4° C. for 22 hours, and then transferred into an incubator at 37° C. and cultured therein. Cell viability was measured by the optical density at 440 nm according to the WST-1 method (MK-400, Takeda), and IC50 (unit: μM) was obtained using prism software (see Table 1).

Data set [2] has as its system primary hepatocytes isolated from rats. Kind of data set: Hepatocyte-protecting effect: viability of isolated primary hepatocytes in culture (WST-1). The data set is classed as cell-based. Conditions: rat primary hepatocytes; treated at 1 or 10 μM; WST-1, optical density at 440 nm. As to the method:
If cells are isolated from in vivo environment and their culture or preservation in vitro is begun, it would act as a stress to cells, and the apoptosis mechanism would begin to work. For preservation of organs or tissues, it is necessary to protect them from such a primary stress.
In order to verify this, primary hepatocytes isolated from rats were treated with the compounds of the working examples to observe how well the compounds can protect them from a primary stress. Primary hepatocytes were isolated using the Seglen PO method (Experimental Cell Research 74 (1972) pp. 450-454). Briefly, hepatocytes were isolated according to the two-step collagenase perfusion method and then centrifuged using percoll gradient (Kreamer BL etc., In Vitro Cellular & Developmental Biology 22 (1986) pp. 201-211) at low speed (500 rpm) for 10 minutes to remove dead cells. Viability of hepatocytes was maintained at 90% or more. Cells were suspended in HepatoZYME media (Gibco BRL) and counted. 1.5×10^4 cells of 100 μl were put into a 96-well plate (BD biocoat) coated with collagen and attached to the bottom for 3-4 hours. […] After 24, 72 or 144 hours, cell viability was measured to evaluate a hepatocyte-protecting effect.
Cell viability was measured by the optical density at 440 nm according to the WST-1 method (MK-400, Takeda). […]

The test system of data set [3] is human embryonic lung cell line (LB-HEL). In words: Cell-protecting effect against cold shock in LB-HEL cells (WST-1). The data set is classed as cell-based. Conditions: cold shock at 4° C. for 24 hours, then 37° C., cell viability by WST-1. As to the method: The same results as above were also obtained in other types of cells such as human embryonic lung cell line (LB-HEL) as well as hepatocytes (see FIG. 2 and Table 2). More specifically, LB-HEL cells were plated at 1.5×10^6 cells/well using DMEM medium (Gibco BRL) and treated with DMSO, nec-1, IM-54 or the compounds of Examples 126, 127, 137 and 138 at indicated concentrations. After storage at 4° C. for 24 hours, the mixture was transferred into an incubator at 37° C. and cultured therein. In order to verify recovery capacity at 37° C., cell viability after 24 hours post-transfer was measured by the optical density at 440 nm according to the WST-1 method (MK-400, Takeda) and compared with cell viability prior to cold shock (FIG. 2).

For data set [4], the system named is rat-isolated perfusion liver. Kind of data set: Protecting effect against cold ischemia/warm reperfusion injury in rat-isolated perfusion liver model. Conditions: 30 μM in HTK solution, 24-hour cold preservation at 4° C. As to the method: In order to verify an organ preservation effect, rat-isolated perfusion liver model was used to evaluate a protecting effect of the compounds of the working examples against cold preservation injury. A white rat was anesthetized by intraperitoneal injection of sodium pentobarbital (50 mg/kg) and administered with heparin (500 U/kg) by intravenous injection to prevent blood coagulation. After incising the abdominal median line, in order to measure bile output, polyethylene tube-10 was inserted into the bile duct, and the coronary vein was tied. Polyethylene tube-190 was inserted into the hepatic portal vein, and a perfusate, Krebs-Henseleit bicarbonate buffer (KHBB) (at pH 7.4 at 37° C.) was perfused at a rate of 4 mL/min/g. […] During the perfusion, a mixed gas (O2 95% and CO2 5%) was continuously injected to KHBB to supply oxygen. […]
In order to observe a protecting effect against ischemia and reperfusion injury, bile output and perfusate's LDH activity were measured. KHBB perfusate released from liver at 5, 10, 20, 30, 40, 50, 60, 70 and 80 minutes after reperfusion was collected, and LDH activity in the perfusate was measured using a biochemical automatic analyzer, Hitachi 7150 (FIG. 4). Bile secreted through the polyethylene tube which had been inserted into the bile duct at 0˜20, 20˜40, 40˜60 and 60˜80 minutes after reperfusion was collected, and bile output was measured (FIG. 5).

Structures are written as SMILES. pIC50: −log10 of the molar value.

For the compound `O=C(O)C[C@H]1CSC(c2cc3cc(Oc4ccccc4)cc(NC4CCCC4)c3[nH]2)=N1` [Example 21, [(S)-2-(7-cyclopentylamino-5-phenoxy-1H-indol-2-yl)-4,5-dihydro-thiazole-4-yl]-acetic acid], the pIC50 in data set [1] was above 6.92. Besides, the “viability after 144 hours, compared with viability after 24 hours” value in data set [2] was at least 80%.
Turning to `O=S1(=O)CCN(Cc2cc(NC3CCOCC3)c3[nH]c(-c4ccccc4)cc3c2)CC1` [Example 126, [5-(1,1-dioxo-thiomorpolin-4-ylmethyl)-2-phenyl-1H-indol-7-yl]-(tetrahydropyran-4-yl)-amine], the pIC50 is 6.61 in data set [1] and above 7.00 in data set [3]. The “total amount of bile output” value in data set [4] (80 minutes of reperfusion) is 0.070±0.006 ml/g liver. Further, the inhibition at 30 µM in data set [4] (Rattus norvegicus, until 50 minutes of reperfusion, read-out: inhibition of LDH activity in the perfusate, compared with the HTK group) was in the range of 50 to 70%.
Turning to `C[C@H](NC(=O)C(=O)Nc1ccccc1C(C)(C)C)C(=O)N[C@@H](CC(=O)O)C(=O)COc1c(F)c(F)cc(F)c1F` [IDN6556, reference compound], in data set [2], the “viability after 72 hours, compared with viability after 24 hours” value is “about 50%”.
